Measured values published in patent publication US20080026456A1, “Method and apparatus for reducing pathogens in a biological sample” (priority 2002, published 2008).

How the values were obtained:
[1] = tested on: Brucella abortus Strain 19; assay type: cell-based
[2] = tested on: Campylobacter fetus isolate [4914]; assay type: cell-based
[3] = tested on: confluent buffalo rat liver cell monolayers; assay: Trypsin activity after dilution: detachment of confluent somatic cell monolayers; assay type: cell-based; settings: final concentrations 0.125% and […]
[4] = tested on: fresh semen of domestic bulls (Bos taurus) and gaur (Bos gaur) bulls; assay: Sperm survival after Percoll column with trypsin, fresh bull and gaur semen; assay type: cell-based; settings: 0.125% trypsin in 45% Percoll column
bovine sperm = assay: Sperm viability with trypsin in density gradient (later studies)
Mycoplasma species = settings: without detrimentally affecting embryonic development in vitro; cited from earlier work
[5] = tested on: cultured cells and embryos; design: dose or concentration left out as unconfirmed; settings: 37° C.; cited from earlier work

| Molecule | sensitivity of isolate to antibiotic [1] | sensitivity of isolate to antibiotic [2] | also measured |
| --- | --- | --- | --- |
| gentamicin | sensitive | sensitive |  |
| CCC[C@@H]1C[C@@H](C(=O)N[C@@H]([C@H]2O[C@H](SC)[C@H](O)[C@@H](O)[C@H]2O)[C@@H](C)O)N(C)C1 [lincomycin] | resistant | sensitive |  |
| trypsin |  |  | enzymatic activity after dilution with Percoll, Isolate or egg yolk-based cryodiluents [3]: did not diminish enzymatic activity; effect on sperm motility, viability, acrosomal integrity [4]: no detrimental affects; effect of increasing trypsin concentration on sperm (bovine sperm): no detrimental effects |
| CC[C@H]1OC(=O)C[C@@H](O)[C@H](C)[C@@H](O[C@@H]2O[C@H](C)[C@@H](O[C@H]3C[C@@](C)(O)[C@@H](O)[C@H](C)O3)[C@H](N(C)C)[C@H]2O)[C@@H](CC=O)C[C@@H](C)C(=O)/C=C/C(C)=C/[C@@H]1CO[C@@H]1O[C@H](C)[C@@H](O)[C@@H](OC)[C@H]1OC [tylosin] | intermediate | intermediate | minimal concentration for eliminating Mycoplasma species from bovine embryos (Mycoplasma species): 200 µg/mL |
| CN[C@@H]1[C@H](O)[C@H](NC)[C@H]2O[C@@]3(O)C(=O)C[C@@H](C)O[C@H]3O[C@@H]2[C@H]1O [spectinomycin] | sensitive | intermediate |  |
| NC[C@H]1O[C@H](O[C@H]2[C@H](O)[C@@H](O[C@H]3O[C@H](CO)[C@@H](O)[C@H](N)[C@H]3O)[C@H](N)C[C@@H]2N)[C@H](O)[C@@H](O)[C@@H]1O [kanamycin] |  |  | toxicity to cultured cells and embryos [5]: very little toxicity |
